For one data set, the system named is Apera spica-venti. The data set can be described thus: Test Example 2: spraying treatment on stems and leaves, herbicidal rate. Type of data set: in vivo. The note with it: spray amount of 16 g, three weeks later. Here is the method:
Emulsion for testing was prepared according to the preparation method described in Test Example 1.
A 150 cm^2 pot was filled with soil, and seeds of Avena sativa, Lolium multiflorum and Apera spica-venti were sowed on the surface layer, and after the soil was covered lightly, the Avena sativa, Lolium multiflorum and Apera spica-venti were grown in a greenhouse. At the point in time when Avena sativa was grown to a plant height of 16 to 20 cm, Lolium multiflorum was grown to a plant height of 10 to 14 cm, and Apera spica-venti was grown to a plant height of 2 to 4 cm, the emulsion for testing was diluted in such a way as to have a predetermined amount of an active ingredient and was sprayed on the leaves and stems in a spray amount of water of 250 L per hectare with a small-sized atomizer.
Three weeks later, the weight of a living weed above the ground was measured for each weed in the nontreated zone and in the treated zone to calculate a herbicidal rate by the following calculation formula.
Herbicidal rate (%)=(weight of living weed above ground in nontreated zone−weight of living weed above ground in treated zone)/(weight of living weed above ground in nontreated zone)×100 […]

As to `Cn1nnnc1NC(=O)c1ccc(C(F)(F)F)c2c1CCCS2` [a-37, N-(1-Methyl-1H-tetrazol-5-yl)-8-(trifluoromethyl)thiochromane-5-carboxamide], the melting point (usually the temperature, or range, at which the solid turns liquid) is 166 to 167 °C. Still for that read-out and setting: the value for `CCOC1CS(=O)(=O)c2c(C(F)(F)F)ccc(C(=O)Nc3nnnn3C)c21` (stereo not drawn) [b-1] was 209 to 211 °C; that for `COCC1Cc2c(C(=O)Nc3nnnn3C)ccc(C(F)(F)F)c2S1(=O)=O` (stereo not drawn) [b-2] was 215 to 217 °C; that for `Cn1nnnc1NC(=O)c1ccc(C(F)(F)F)c2c1C(O)CS2(=O)=O` (stereo not drawn) [b-3] was 202 to 205 °C.

In turn, `Cn1nnnc1NC(=O)c1ccc(C(F)(F)F)c2c1C(Br)CS2(=O)=O` (stereo not drawn) [b-4] gave a melting point of 209 to 211 °C. Same read-out and setting: the value for `COC1CS(=O)(=O)c2c(C(F)(F)F)ccc(C(=O)Nc3nnc(C)o3)c21` (stereo not drawn) [b-5] was 206 to 207 °C; that for `COC1Cc2c(C(=O)Nc3nnnn3C)ccc(C(F)(F)F)c2S(=O)(=O)C1` (stereo not drawn) [b-8] was 226 to 228 °C. On the same count and under the same terms, the result for `COC1CSc2c(C(F)(F)F)ccc(C(=O)Nc3nnnn3C)c2C1` (stereo not drawn) [b-9] reads 168 to 170 °C; that for `Cn1nnnc1NC(=O)c1ccc(C(F)(F)F)c2c1C(F)CCS2(=O)=O` (stereo not drawn) [b-10], 220 to 223 °C. The same measure, in the same setting: the result for `Cn1nnnc1NC(=O)c1ccc(C(F)(F)F)c2c1C(F)CCS2` (stereo not drawn) [b-11] reads 132 to 135 °C; that for `CC1CCc2c(C(=O)Nc3nnnn3C)ccc(C(F)(F)F)c2S1(=O)=O` (stereo not drawn) [b-12], 270 to 271 °C; that for `Cc1nnc(NC(=O)c2ccc(C(F)(F)F)c3c2CCC(C)S3)o1` (stereo not drawn) [b-14], 182 to 183 °C. In the case of `Cn1nnnc1NC(=O)c1ccc(C(F)(F)F)c2c1CCCS2(=O)=NC#N` (stereo not drawn) [b-19], the melting point lay within 151 to 153 °C.

For the compound `CC1CCc2c(C(=O)Nc3nnnn3C)ccc(C(F)(F)F)c2/S1=N/C#N` (stereo not drawn) [b-21], the melting point was 117 to 120 °C. Same read-out and setting: the value for `COc1ccc(N=S2(=O)CCCc3c(C(=O)Nc4nnnn4C)ccc(C(F)(F)F)c32)cc1` (stereo not drawn) [b-22] was 123 to 124 °C; that for `Cn1nnnc1NC(=O)c1ccc(C(F)(F)F)c2c1CCCS2(=O)=Nc1ccccc1` (stereo not drawn) [b-23] was 110 to 112 °C. `Cn1nnnc1NC(=O)c1ccc(C(F)(F)F)c2c1CCCS2(=O)=Nc1ccc(Cl)cc1` (stereo not drawn) [b-24] registered a melting point of 113 to 114 °C. `O=C(Nc1nnnn1CC(F)(F)F)c1ccc(C(F)(F)F)c2c1CCCS2` [c-6]: the “herbicidal activity (Apera spica-venti, follows Table 10)” value with Apera spica-venti is at least 80%.

The values are drawn from patent US20220220099A1, “BENZAMIDE COMPOUND, AND HERBICIDE” (Nippon Soda Co., Ltd., priority 2019, published 2022).
